Results: patent US11672251B2, “Herbicidally active pyridyl-/pyrimidyl-pyrimidine derivatives” (Syngenta Participations AG, priority 2017, dated 2023)

Test system: Echinochloa crus-galli (ECHCG)
Assay: B2 post-emergence herbicidal activity
Assay type: in vivo
Details: Test B2b; post-emergence (sprayed after 8 days cultivation); rate 1000 g/ha; evaluated after 13 days; scale 5=total damage to plant, 0=no damage to plant
Protocol: (§1) Seeds of a variety of test species were sown in standard soil in pots: Triticum aestivium (TRZAW), Avena fatua (AVEFA), Alopecurus myosuroides (ALOMY), Echinochloa crus-galli (ECHCG), Lolium perenne (LOLPE), Zea Mays (ZEAMX), Abutilon theophrasti (ABUTH), Amaranthus retroflexus (AMARE) and Setaria faberi (SETFA). After 8 days cultivation (post-emergence) under controlled conditions in a glasshouse (at 24/16° C., day/night; 14 hours light; 65% humidity), the plants were sprayed with an aqueous spray solution derived from the formulation of the technical active ingredient in acetone/water (50:50) solution containing 0.5% Tween 20 (polyoxyethelyene sorbitan monolaurate, CAS RN 9005-64-5). The test plants were then grown in a glasshouse under controlled conditions (at 24/16° C., day/night; 14 hours light; 65% humidity) and watered twice daily. After 13 days, the test was evaluated (5=total damage to plant; 0=no damage to plant).

SMILES	Control after post-emergence application, damage score: ECHCG
C=CCNc1cnc(-c2cncnc2)nc1C [Compound D7]	2
CN(C)c1cnc(-c2cncc(F)c2)nc1C(F)(F)F [Compound D8]	4
Nc1cnc(-c2cncnc2)nc1C(F)(F)F [Compound D9]	3
N#Cc1cncc(-c2ncc(N)c(C(F)(F)F)n2)c1 [Compound D10, 5-[5-amino-4-(trifluoromethyl)pyrimidin-2-yl]pyridine-3-carbonitrile]	3
Fc1cncc(-c2ncc(NCc3nccs3)c(C(F)(F)F)n2)c1 [Compound D15]	5

Test system: Triticum aestivium (TRZAW)
Assay: B2 post-emergence herbicidal activity
Assay type: in vivo
Details: Test B2b; post-emergence (sprayed after 8 days cultivation); rate 1000 g/ha; evaluated after 13 days; scale 5=total damage to plant, 0=no damage to plant
Protocol: as §1

SMILES	Control after post-emergence application, damage score: TRAZW
C=CCNc1cnc(-c2cncnc2)nc1C [Compound D7]	1
CN(C)c1cnc(-c2cncc(F)c2)nc1C(F)(F)F [Compound D8]	0
Nc1cnc(-c2cncnc2)nc1C(F)(F)F [Compound D9]	0
N#Cc1cncc(-c2ncc(N)c(C(F)(F)F)n2)c1 [Compound D10, 5-[5-amino-4-(trifluoromethyl)pyrimidin-2-yl]pyridine-3-carbonitrile]	1
Fc1cncc(-c2ncc(NCc3nccs3)c(C(F)(F)F)n2)c1 [Compound D15]	0

Test system: Setaria faberi (SETFA)
Assay: B2 post-emergence herbicidal activity
Assay type: in vivo
Details: Test B2b; post-emergence (sprayed after 8 days cultivation); rate 1000 g/ha; evaluated after 13 days; scale 5=total damage to plant, 0=no damage to plant
Protocol: as §1

SMILES	Control after post-emergence application, damage score: SETFA
C=CCNc1cnc(-c2cncnc2)nc1C [Compound D7]	4
CN(C)c1cnc(-c2cncc(F)c2)nc1C(F)(F)F [Compound D8]	5
Nc1cnc(-c2cncnc2)nc1C(F)(F)F [Compound D9]	5
N#Cc1cncc(-c2ncc(N)c(C(F)(F)F)n2)c1 [Compound D10, 5-[5-amino-4-(trifluoromethyl)pyrimidin-2-yl]pyridine-3-carbonitrile]	4
Fc1cncc(-c2ncc(NCc3nccs3)c(C(F)(F)F)n2)c1 [Compound D15]	5

Test system: Lolium perenne (LOLPE)
Assay: B2 post-emergence herbicidal activity
Assay type: in vivo
Details: Test B2b; post-emergence (sprayed after 8 days cultivation); rate 1000 g/ha; evaluated after 13 days; scale 5=total damage to plant, 0=no damage to plant
Protocol: as §1

SMILES	Control after post-emergence application, damage score: LOLPE
C=CCNc1cnc(-c2cncnc2)nc1C [Compound D7]	0
CN(C)c1cnc(-c2cncc(F)c2)nc1C(F)(F)F [Compound D8]	0
Nc1cnc(-c2cncnc2)nc1C(F)(F)F [Compound D9]	2
N#Cc1cncc(-c2ncc(N)c(C(F)(F)F)n2)c1 [Compound D10, 5-[5-amino-4-(trifluoromethyl)pyrimidin-2-yl]pyridine-3-carbonitrile]	1
Fc1cncc(-c2ncc(NCc3nccs3)c(C(F)(F)F)n2)c1 [Compound D15]	2

Test system: Avena fatua (AVEFA)
Assay: B2 post-emergence herbicidal activity
Assay type: in vivo
Details: Test B2b; post-emergence (sprayed after 8 days cultivation); rate 1000 g/ha; evaluated after 13 days; scale 5=total damage to plant, 0=no damage to plant
Protocol: as §1

SMILES	Control after post-emergence application, damage score: AVEFA
C=CCNc1cnc(-c2cncnc2)nc1C [Compound D7]	1
CN(C)c1cnc(-c2cncc(F)c2)nc1C(F)(F)F [Compound D8]	1
Nc1cnc(-c2cncnc2)nc1C(F)(F)F [Compound D9]	3
N#Cc1cncc(-c2ncc(N)c(C(F)(F)F)n2)c1 [Compound D10, 5-[5-amino-4-(trifluoromethyl)pyrimidin-2-yl]pyridine-3-carbonitrile]	1

Test system: Alopecurus myosuroides (ALOMY)
Assay: B2 post-emergence herbicidal activity
Assay type: in vivo
Details: Test B2b; post-emergence (sprayed after 8 days cultivation); rate 1000 g/ha; evaluated after 13 days; scale 5=total damage to plant, 0=no damage to plant
Protocol: as §1

SMILES	Control after post-emergence application, damage score: ALOMY
C=CCNc1cnc(-c2cncnc2)nc1C [Compound D7]	0
CN(C)c1cnc(-c2cncc(F)c2)nc1C(F)(F)F [Compound D8]	0
Nc1cnc(-c2cncnc2)nc1C(F)(F)F [Compound D9]	0
N#Cc1cncc(-c2ncc(N)c(C(F)(F)F)n2)c1 [Compound D10, 5-[5-amino-4-(trifluoromethyl)pyrimidin-2-yl]pyridine-3-carbonitrile]	0
Fc1cncc(-c2ncc(NCc3nccs3)c(C(F)(F)F)n2)c1 [Compound D15]	1

Test system: Echinochloa crus-galli (ECHCG)
Assay: B1 pre-emergence herbicidal activity
Assay type: in vivo
Details: Test 1b, rate 1000 g/ha, evaluated after 13 days, scale 5=total damage to plant, 0=no damage to plant
Protocol: as §1, with “After” for “After 8 days”, “for one day (pre-emergence)” for “(post-emergence)”

SMILES	Control after pre-emergence application, damage score: ECHCG
C=CCNc1cnc(-c2cncnc2)nc1C [Compound D7]	2
CN(C)c1cnc(-c2cncc(F)c2)nc1C(F)(F)F [Compound D8]	2
Nc1cnc(-c2cncnc2)nc1C(F)(F)F [Compound D9]	3
N#Cc1cncc(-c2ncc(N)c(C(F)(F)F)n2)c1 [Compound D10, 5-[5-amino-4-(trifluoromethyl)pyrimidin-2-yl]pyridine-3-carbonitrile]	0
Fc1cncc(-c2ncc(NCc3nccs3)c(C(F)(F)F)n2)c1 [Compound D15]	4

Test system: Triticum aestivium (TRZAW)
Assay: B1 pre-emergence herbicidal activity
Assay type: in vivo
Details: Test 1b, rate 1000 g/ha, evaluated after 13 days, scale 5=total damage to plant, 0=no damage to plant
Protocol: as §1, with “After” for “After 8 days”, “for one day (pre-emergence)” for “(post-emergence)”

SMILES	Control after pre-emergence application, damage score: TRAZW
C=CCNc1cnc(-c2cncnc2)nc1C [Compound D7]	0
CN(C)c1cnc(-c2cncc(F)c2)nc1C(F)(F)F [Compound D8]	0
Nc1cnc(-c2cncnc2)nc1C(F)(F)F [Compound D9]	0
N#Cc1cncc(-c2ncc(N)c(C(F)(F)F)n2)c1 [Compound D10, 5-[5-amino-4-(trifluoromethyl)pyrimidin-2-yl]pyridine-3-carbonitrile]	0
Fc1cncc(-c2ncc(NCc3nccs3)c(C(F)(F)F)n2)c1 [Compound D15]	0

Test system: Setaria faberi (SETFA)
Assay: B1 pre-emergence herbicidal activity
Assay type: in vivo
Details: Test 1b, rate 1000 g/ha, evaluated after 13 days, scale 5=total damage to plant, 0=no damage to plant
Protocol: as §1, with “After” for “After 8 days”, “for one day (pre-emergence)” for “(post-emergence)”

SMILES	Control after pre-emergence application, damage score: SETFA
C=CCNc1cnc(-c2cncnc2)nc1C [Compound D7]	4
CN(C)c1cnc(-c2cncc(F)c2)nc1C(F)(F)F [Compound D8]	4
Nc1cnc(-c2cncnc2)nc1C(F)(F)F [Compound D9]	4
N#Cc1cncc(-c2ncc(N)c(C(F)(F)F)n2)c1 [Compound D10, 5-[5-amino-4-(trifluoromethyl)pyrimidin-2-yl]pyridine-3-carbonitrile]	3
Fc1cncc(-c2ncc(NCc3nccs3)c(C(F)(F)F)n2)c1 [Compound D15]	5

Test system: Lolium perenne (LOLPE)
Assay: B1 pre-emergence herbicidal activity
Assay type: in vivo
Details: Test 1b, rate 1000 g/ha, evaluated after 13 days, scale 5=total damage to plant, 0=no damage to plant
Protocol: as §1, with “After” for “After 8 days”, “for one day (pre-emergence)” for “(post-emergence)”

SMILES	Control after pre-emergence application, damage score: LOLPE
C=CCNc1cnc(-c2cncnc2)nc1C [Compound D7]	1
CN(C)c1cnc(-c2cncc(F)c2)nc1C(F)(F)F [Compound D8]	1
Nc1cnc(-c2cncnc2)nc1C(F)(F)F [Compound D9]	1
N#Cc1cncc(-c2ncc(N)c(C(F)(F)F)n2)c1 [Compound D10, 5-[5-amino-4-(trifluoromethyl)pyrimidin-2-yl]pyridine-3-carbonitrile]	0
Fc1cncc(-c2ncc(NCc3nccs3)c(C(F)(F)F)n2)c1 [Compound D15]	0

Test system: Avena fatua (AVEFA)
Assay: B1 pre-emergence herbicidal activity
Assay type: in vivo
Details: Test 1b, rate 1000 g/ha, evaluated after 13 days, scale 5=total damage to plant, 0=no damage to plant
Protocol: as §1, with “After” for “After 8 days”, “for one day (pre-emergence)” for “(post-emergence)”

SMILES	Control after pre-emergence application, damage score: AVEFA
C=CCNc1cnc(-c2cncnc2)nc1C [Compound D7]	1
CN(C)c1cnc(-c2cncc(F)c2)nc1C(F)(F)F [Compound D8]	1
Nc1cnc(-c2cncnc2)nc1C(F)(F)F [Compound D9]	2
N#Cc1cncc(-c2ncc(N)c(C(F)(F)F)n2)c1 [Compound D10, 5-[5-amino-4-(trifluoromethyl)pyrimidin-2-yl]pyridine-3-carbonitrile]	0
Fc1cncc(-c2ncc(NCc3nccs3)c(C(F)(F)F)n2)c1 [Compound D15]	1

Test system: Alopecurus myosuroides (ALOMY)
Assay: B1 pre-emergence herbicidal activity
Assay type: in vivo
Details: Test 1b, rate 1000 g/ha, evaluated after 13 days, scale 5=total damage to plant, 0=no damage to plant
Protocol: as §1, with “After” for “After 8 days”, “for one day (pre-emergence)” for “(post-emergence)”

SMILES	Control after pre-emergence application, damage score: ALOMY
C=CCNc1cnc(-c2cncnc2)nc1C [Compound D7]	0
CN(C)c1cnc(-c2cncc(F)c2)nc1C(F)(F)F [Compound D8]	0
Nc1cnc(-c2cncnc2)nc1C(F)(F)F [Compound D9]	0
N#Cc1cncc(-c2ncc(N)c(C(F)(F)F)n2)c1 [Compound D10, 5-[5-amino-4-(trifluoromethyl)pyrimidin-2-yl]pyridine-3-carbonitrile]	0
Fc1cncc(-c2ncc(NCc3nccs3)c(C(F)(F)F)n2)c1 [Compound D15]	0
